Results as given in patent US7872014B2, “Anaplastic lymphoma kinase modulators and methods of use” (Exelixis, Inc., priority 2003, dated 2011).
Structures can show the parent of a compound that is named as a salt.

Target: T1, ALK (baculovirus expressed human ALK kinase domain F1098-K1410) (Homo sapiens, UniProt Q9UM73)
T1 construct: baculovirus expressed human ALK kinase domain F1098-K1410; made in house
Assay: Luciferase-Coupled Chemiluminescent Kinase assay (LCCA), ALK biochemical activity
Conditions: inhibition of ALK; mean values; 1 μM ATP, 4 μM poly-AEKY, 12 nM ALK, 2 hours ambient temperature
Method: ALK biochemical activity was assessed using a Luciferase-Coupled Chemiluminescent Kinase assay (LCCA) format in which kinase activity was measured as the percent ATP remaining following the kinase reaction. ATP remaining after the kinase reaction was detected by luciferase-luciferin-coupled chemiluminescence.
The reaction was initiated by mixing test compounds, 1 μM ATP, 4 μM poly-AEKY and 12 nM ALK (baculovirus expressed human ALK kinase domain F1098-K1410) in a 20 μL assay buffer ([…] pH 7.5, 10 mM MgCl2, 0.02% Triton X-100, 100 mM DTT, 2 mM MnCl2). The mixture was incubated at ambient temperature for 2 hours after which 20 μL luciferase-luciferin mix was added and the chemiluminescent signal read using a Wallac Victor^2 reader. The luciferase-luciferin mix consists of 50 mM HEPES, pH 7.8, 8.5 μg/mL oxalic acid (pH 7.8), 5 (or 50) mM DTT, 0.4% Triton X-100, 0.25 mg/mL coenzyme A, 63 μM AMP, 28 μg/mL luciferin and 40,000 units of light/mL luciferase.
Consumption of ATP by ALK can thus be quantified and utilized as a measure of inhibition of ALK activity by compounds described herein. By employing serial dilutions of compounds to be tested, the ability of test compounds to inhibit ALK activity can be determined.

T1 sequence (Q9UM73 1098-1410): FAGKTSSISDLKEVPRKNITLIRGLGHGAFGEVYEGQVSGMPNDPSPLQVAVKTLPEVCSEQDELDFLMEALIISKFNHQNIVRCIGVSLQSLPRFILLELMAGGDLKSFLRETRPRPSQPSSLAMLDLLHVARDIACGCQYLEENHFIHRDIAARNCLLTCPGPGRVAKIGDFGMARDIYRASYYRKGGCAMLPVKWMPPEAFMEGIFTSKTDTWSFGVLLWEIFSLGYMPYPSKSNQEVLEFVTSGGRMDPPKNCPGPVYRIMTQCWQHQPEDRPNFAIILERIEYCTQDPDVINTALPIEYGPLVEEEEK

Row | Compound | IC50 [nM]
1 | COc1cc2c(-c3ccc(O)cc3)nc3[nH]nc(Cc4cccc(C)c4)c3c2cc1OC [Example 14, hydrochloride] | 100 to 999
2 | COc1cc2c(-c3ccc(O)cc3)nc3[nH]nc(C)c3c2cc1OC [Example 15, trifluoroacetate] | ≤ 99
3 | COc1cc2c(c(-c3ccc(O)cc3)nc3[nH]nc(Cc4ccccc4)c32)c(OC)c1OC [Example 24, 4-[6,7,8-tris(methyloxy)-1-(phenylmethyl)-3H-pyrazolo[3,4-c]isoquinolin-5-yl]phenol] | ≤ 99
4 | COc1cc2c(c(-c3ccc(O)cc3)nc3[nH]nc(C)c32)c(OC)c1OC [Example 25, 4-[1-methyl-6,7,8-tris(methyloxy)-3H-pyrazolo[3,4-c]isoquinolin-5-yl]phenol] | ≤ 99
5 | COc1ccc2c(-c3ccc(O)cc3)nc3[nH]nc(Cc4ccccc4)c3c2c1 [Example 26, 4-[8-(methyloxy)-1-(phenylmethyl)-3H-pyrazolo[3,4-c]isoquinolin-5-yl]phenol] | 100 to 999
6 | COc1cc2c(-c3ccc(O)cc3)nc3[nH]nc(C(F)(F)F)c3c2cc1OC [Example 27, 4-[7,8-bis(methyloxy)-1-(trifluoromethyl)-3H-pyrazolo[3,4-c]isoquinolin-5-yl]phenol] | 100 to 999
7 | COc1cc2c(-c3ccc(O)cc3)nc3[nH]nc(C(C)C)c3c2cc1OC [Example 28, 4-[1-(1-methylethyl)-7,8-bis(methyloxy)-3H-pyrazolo[3,4-c]isoquinolin-5-yl]phenol] | 100 to 999
8 | COc1cc2c(-c3ccc(O)cc3)nc3[nH]ncc3c2cc1OC [Example 29, 4-[7,8-bis(methyloxy)-3H-pyrazolo[3,4-c]isoquinolin-5-yl]phenol] | 100 to 999
9 | COc1cc(OC)c2c(-c3ccc(O)cc3)nc3[nH]nc(C)c3c2c1 [Example 31, 4-[1-methyl-6,8-bis(methyloxy)-3H-pyrazolo[3,4-c]isoquinolin-5-yl]phenol] | ≤ 99
10 | COc1cc(OC)c2c(-c3ccc(O)cc3)nc3[nH]ncc3c2c1 [Example 32, 4-[6,8-bis(methyloxy)-3H-pyrazolo[3,4-c]isoquinolin-5-yl]phenol] | 100 to 999
11 | COc1cc2c(c(-c3ccc(O)cc3)nc3[nH]ncc32)c(OC)c1OC [Example 34, 4-[6,7,8-tris(methyloxy)-3H-pyrazolo[3,4-c]isoquinolin-5-yl]phenol] | ≤ 99
12 | COc1cc2c(-c3ccc(O)cc3)nc3[nH]nc(C)c3c2c(OC)c1OC [Example 35, 4-[1-methyl-7,8,9-tris(methyloxy)-3H-pyrazolo[3,4-c]isoquinolin-5-yl]phenol] | ≤ 99
13 | COc1ccc2c(-c3ccc(O)cc3)nc3[nH]nc(C)c3c2c1 [Example 36, 4-[1-methyl-8-(methyloxy)-3H-pyrazolo[3,4-c]isoquinolin-5-yl]phenol] | ≤ 99
14 | COc1cc2c(-c3ccc(O)c(C)c3)nc3[nH]nc(C)c3c2cc1OC [Example 37, 2-methyl-4-[1-methyl-7,8-bis(methyloxy)-3H-pyrazolo[3,4-c]isoquinolin-5-yl]phenol] | ≤ 99
15 | COc1cc(-c2nc3[nH]nc(C)c3c3cc(OC)c(OC)cc23)ccc1O [Example 38, 4-[1-methyl-7,8-bis(methyloxy)-3H-pyrazolo[3,4-c]isoquinolin-5-yl]-2-(methyloxy)phenol] | 100 to 999
16 | COc1cc2c(cc1OCCN1CCOCC1)c(-c1ccc(O)cc1)nc1[nH]nc(C)c12 [Example 39, 4-{1-methyl-8-(methyloxy)-7-[(2-morpholin-4-ylethyl)oxy]-3H-pyrazolo[3,4-c]isoquinolin-5-yl}phenol] | 100 to 999
17 | CCOc1cc(-c2nc3[nH]nc(C)c3c3cc(OC)c(OC)cc23)ccc1O [Example 40, 2-(ethyloxy)-4-[1-methyl-7,8-bis(methyloxy)-3H-pyrazolo[3,4-c]isoquinolin-5-yl]phenol] | 100 to 999
18 | COc1cc2c(-c3ccc(O)c(Cl)c3)nc3[nH]nc(C)c3c2cc1OC [Example 41, 2-chloro-4-[1-methyl-7,8-bis(methyloxy)-3H-pyrazolo[3,4-c]isoquinolin-5-yl]phenol] | ≤ 99
19 | COc1cc2c(-c3ccc(O)c(F)c3)nc3[nH]nc(C)c3c2cc1OC [Example 42, 2-fluoro-4-[1-methyl-7,8-bis(methyloxy)-3H-pyrazolo[3,4-c]isoquinolin-5-yl]phenol] | 100 to 999

Row | Compound | IC50 [nM]
20 | COc1cc2c(-c3ccc(O)c(Br)c3)nc3[nH]nc(C)c3c2cc1OC [Example 44, 2-bromo-4-[1-methyl-7,8-bis(methyloxy)-3H-pyrazolo[3,4-c]isoquinolin-5-yl]phenol] | ≤ 99
21 | COc1cc2c(-c3ccc(O)cc3)nc3[nH]nc(CN4CCCC4=O)c3c2cc1OC [Example 45, 1-{[5-(4-hydroxyphenyl)-7,8-bis(methyloxy)-3H-pyrazolo[3,4-c]isoquinolin-1-yl]methyl}pyrrolidin-2-one] | 100 to 999
22 | COc1cc2c(-c3ccc(O)cc3)nc3[nH]nc(C)c3c2cc1OCC1CCNCC1 [Example 54, 4-{1-methyl-7-(methyloxy)-8-[(piperidin-4-ylmethyl)oxy]-3H-pyrazolo[3,4-c]isoquinolin-5-yl}phenol] | ≤ 99
23 | COc1cc2c(cc1OCC1CCNCC1)c(-c1ccc(O)cc1)nc1[nH]nc(C)c12 [Example 55, 4-{1-methyl-8-(methyloxy)-7-[(piperidin-4-ylmethyl)oxy]-3H-pyrazolo[3,4-c]isoquinolin-5-yl}phenol] | 100 to 999
24 | CCOc1cc2c(cc1OC)c(-c1ccc(O)cc1)nc1[nH]nc(C)c12 [Example 58, 4-[8-(ethyloxy)-1-methyl-7-(methyloxy)-3H-pyrazolo[3,4-c]isoquinolin-5-yl]phenol] | 100 to 999
25 | COc1ccc2c(-c3ccc(O)cc3)nc3[nH]nc(C)c3c2c1OC [Example 59, 4-[1-methyl-8,9-bis(methyloxy)-3H-pyrazolo[3,4-c]isoquinolin-5-yl]phenol] | ≤ 99
26 | CCOc1cc2c(-c3ccc(O)cc3)nc3[nH]nc(C)c3c2cc1OC [Example 60, 4-[7-(ethyloxy)-1-methyl-8-(methyloxy)-3H-pyrazolo[3,4-c]isoquinolin-5-yl]phenol] | 100 to 999
27 | COc1ccc2c(-c3ccc(O)cc3)nc3[nH]nc(C)c3c2c1OCC1CCNCC1 [Example 61, 4-{1-methyl-8-(methyloxy)-9-[(piperidin-4-ylmethyl)oxy]-3H-pyrazolo[3,4-c]isoquinolin-5-yl}phenol] | ≤ 99
28 | CCc1cc(-c2nc3[nH]nc(C)c3c3cc(OC)c(OC)cc23)ccc1O [Example 63, 2-ethyl-4-[1-methyl-7,8-bis(methyloxy)-3H-pyrazolo[3,4-c]isoquinolin-5-yl]phenol] | 100 to 999
29 | COc1ccc2c(-c3ccc(O)cc3)nc3[nH]nc(C)c3c2c1OCC1CCN(C)CC1 [Example 64, 4-(1-methyl-8-(methyloxy)-9-{[(1-methylpiperidin-4-yl)methyl]oxy}-3H-pyrazolo[3,4-c]isoquinolin-5-yl)phenol] | ≤ 99
30 | COc1cc2c(-c3ccc(O)cc3)nc3[nH]nc(C)c3c2cc1OCC1CCN(C)CC1 [Example 65, 4-(1-methyl-7-(methyloxy)-8-{[(1-methylpiperidin-4-yl)methyl]oxy}-3H-pyrazolo[3,4-c]isoquinolin-5-yl)phenol] | ≤ 99
31 | COc1cc2c(cc1C)c(-c1ccc(O)cc1)nc1[nH]nc(C)c12 [Example 66, 4-[1,7-dimethyl-8-(methyloxy)-3H-pyrazolo[3,4-c]isoquinolin-5-yl]phenol] | ≤ 99
32 | COc1cc2c(-c3ccc(O)cc3)nc3[nH]nc(C4CCN(C(=O)OC(C)(C)C)CC4)c3c2cc1OC [Example 67, 1,1-dimethylethyl 4-[5-(4-hydroxyphenyl)-7,8-bis(methyloxy)-3H-pyrazolo[3,4-c]isoquinolin-1-yl]piperidine-1-carboxylate] | 100 to 999
33 | COc1ccc2c(-c3ccc(O)c(Cl)c3)nc3[nH]nc(C)c3c2c1OC [Example 69, 2-chloro-4-[1-methyl-8,9-bis(methyloxy)-3H-pyrazolo[3,4-c]isoquinolin-5-yl]phenol] | ≤ 99
34 | COc1ccc2c(-c3ccc(O)c(F)c3)nc3[nH]nc(C)c3c2c1OC [Example 70, 2-fluoro-4-[1-methyl-8,9-bis(methyloxy)-3H-pyrazolo[3,4-c]isoquinolin-5-yl]phenol] | ≤ 99
35 | COc1ccc2c(-c3ccc(O)c(C)c3)nc3[nH]nc(C)c3c2c1OC [Example 71, 2-methyl-4-[1-methyl-8,9-bis(methyloxy)-3H-pyrazolo[3,4-c]isoquinolin-5-yl]phenol] | ≤ 99
36 | COc1ccc2c(-c3ccc(O)c(Br)c3)nc3[nH]nc(C)c3c2c1OC [Example 72, 2-bromo-4-[1-methyl-8,9-bis(methyloxy)-3H-pyrazolo[3,4-c]isoquinolin-5-yl]phenol] | ≤ 99
37 | COc1cc2c(-c3ccc(O)c(OC(F)F)c3)nc3[nH]nc(C)c3c2cc1OC [Example 76, 2-[(difluoromethyl)oxy]-4-[1-methyl-7,8-bis(methyloxy)-3H-pyrazolo[3,4-c]isoquinolin-5-yl]phenol] | 1000 to 2000
38 | COc1ccc2c(-c3ccc(O)cc3)nc3[nH]nc(C)c3c2c1C [Example 78, 4-[1,9-dimethyl-8-(methyloxy)-3H-pyrazolo[3,4-c]isoquinolin-5-yl]phenol] | ≤ 99
